Measured values: PubChem BioAssay (NCI)
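Growth conditions: 96-well plates. Treatment: test compound, 48 hours, 5 concentrations. Analysis: linear interpolation between bracketing concentrations; unreached endpoints set to highest concentration. Definition used: TGI = concentration required for complete inhibition of growth.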

Legend:
Experiment in all cases: DTP human tumour cell line panel, 48 h
[1] = test system: 786-0 renal
[2] = test system: A498 renal
[3] = test system: A549 NSCLC
[4] = test system: ACHN renal
[5] = test system: BT-549 breast
[6] = test system: CAKI-1 renal
[7] = test system: CCRF-CEM leukemia
[8] = test system: COLO 205 colon
[9] = test system: DU-145 prostate
[10] = test system: EKVX NSCLC
[11] = test system: HCC-2998 colon
[12] = test system: HCT-116 colon
[13] = test system: HCT-15 colon
[14] = test system: HL-60(TB) leukemia
[15] = test system: HOP-62 NSCLC
[16] = test system: HOP-92 NSCLC
[17] = test system: HT29 colon
[18] = test system: IGROV1 ovarian
[19] = test system: K-562 leukemia
[20] = test system: KM12 colon
[21] = test system: LOX IMVI melanoma
[22] = test system: M14 melanoma
[23] = test system: MALME-3M melanoma
[24] = test system: MCF7 breast
[25] = test system: MDA-MB-231 breast
[26] = test system: MDA-MB-435
[27] = test system: MDA-N
[28] = test system: MOLT-4 leukemia
[29] = test system: NCI-H226 lung
[30] = test system: NCI-H23 lung
[31] = test system: NCI-H460 lung
[32] = test system: NCI-H522 lung
[33] = test system: NCI/ADR-RES ovarian
[34] = test system: OVCAR-3 ovarian
[35] = test system: OVCAR-4 ovarian
[36] = test system: OVCAR-5 ovarian
[37] = test system: OVCAR-8 ovarian
[38] = test system: PC-3 prostate
[39] = test system: RPMI-8226 leukemia
[40] = test system: RXF 393 renal
[41] = test system: SF-268 CNS
[42] = test system: SF-295 CNS
[43] = test system: SF-539 CNS
[44] = test system: SK-MEL-2 melanoma
[45] = test system: SK-MEL-28 melanoma
[46] = test system: SK-MEL-5 melanoma
[47] = test system: SK-OV-3 ovarian
[48] = test system: SN12C renal
[49] = test system: SNB-19 CNS
[50] = test system: SNB-75 CNS
[51] = test system: SR leukemia
[52] = test system: SW-620 colon
[53] = test system: T-47D breast
[54] = test system: TK-10 renal
[55] = test system: U251 CNS
[56] = test system: UACC-257 melanoma
[57] = test system: UACC-62 melanoma
[58] = test system: UO-31 renal
[59] = test system: HS 578T breast

Measured: TGI

C=Cc1ccccc1C1C(C(=O)OCC)=C(C)N=C2OC(C(=O)OC)C(=O)N21 (centres undefined)
not listed: [59]
> 100 µM: all other assays above

O=C(O)c1ccccc1/C=C1\Cc2ccccc2C1=O
not listed: [16] | [25] | [47]
> 100 µM: all other assays above
